Consider 5 compounds from patent publication US20240209011A1, “HETEROAROMATIC PHOSPHONIUM SALTS FOR TREATING CANCER” (FLORATEK PHARMA S.A., priority 2021, published 2024).

pIC50: −log10 of the molar value. Marks after values point to notes of the source that are not given here.

One data set deals with K562 CDX. The data set can be described thus: In vivo tumour inhibition of xenograft leukemia model K562. As to conditions: K562 CDX in NOG mice; for Optimal T/C (value): day 17 after tumour transplantation, median tumour volume treated/control; for tumour growth inhibition: i.p. daily, T/C at day 17 after tumour transplantation. As for the experimental part: In vivo activity against a number of CDX were evaluated in various nude or SCID mice. Tumour cells were inoculated subcutaneous (s.c) into the mice flank. Mice were randomized into groups when tumours were around 100-200 mm^3. A vehicle control group (2.5-4% DMSO, 5% EtOH, 20% PEG200 in saline) was part of each experiment. Treatment was administered intraperitoneally (i.p.) 3 times a week or daily (qd).
Body weight was measured before each treatment and treatments of individual mice was paused, when the body weight loss was >15%. Tumor volumes were measured 2×/week. Mice were individually sacrificed, when the tumor volume reached the volume specified in the laboratory internal SOP.
The tumour inhibition growth was assessed as the optimal T/C, where T represents the median tumour volume of the treated group and C represents the median tumour volume of the control (vehicle) group. Statistical analysis was performed using two way RM ANOVA with p values […] considered statistically significant.
Test compounds were evaluated for the in vivo inhibition activity against the chronic myelogenous leukemia CDX in NOG mice. 1×10^7 cells were injected s.c. into the left flank at day 0. Mice were stratified into groups of 10 mice each with a mean tumor volume of 109±35 mm^3 and the treatment was administered i.p. daily.

In another data set the test system is CO-04-0700. Nature of the data set: PDX-derived cell culture cytotoxicity (CellTiter-Glo). Type of data set: cell-based. The following applies: 120 h; colon PDX CO-04-0700; absolute IC50; 5 days. The procedure: (§1) PDX-derived cell cultures were obtained from tumors explanted from mice and isolated by mechanical and enzymatic dissociation. […] Cells were harvested and seeded in 96-wells plates at a density of 1.25 to 5×10^3 cells/well for cytotoxicity assays. Cells were incubated 48 h at 37° C. prior to addition of test molecules and vehicle (DMSO, 0.1%) at desired final concentrations. Cell viability was assessed before drugs' addition (To) and 5 days after test molecules addition by measuring ATP cell content using CellTiter-Glo® Luminescent Cell Viability Assay (Promega) according to the manufacturer's instructions. Luciferase activity was measured on a luminometer (PerkinElmer® EnVision™). Each concentration of compounds was tested in triplicate.
(§2) Viability was calculated as a percentage of ATP value compared to vehicle treated controls.
(§3) For PDX primary cell cultures, the tumour tissue was washed with PBS containing antibiotic-antimycotic and non-tumour tissue and necrotic tumour tissues were separated. The tumour tissue was transferred to a new dish and cut into 1-2 mm^3 fragments, resuspended in RPMI-1640 medium and centrifuged at 1,200 rpm for 6 min at room temperature. The pelleted material was resuspended with 15 mL of Tumour Cell Digestion Solution and incubated at 37° C. for 1 hour with agitation. Following further addition of media, centrifugation and passage through a […] cell strainer, the homogenous cell mixture was layered onto 15 mL of Ficoll-Paque PLUS in a 50 mL conical tube and centrifuged for 15 min at 1,600 rpm. The interface cells were collected, washed with media, separated by centrifugation at 1,200 rpm. The cell pellet was resuspended in serum free media supplemented with growth factors. 10,000 cells/wells were plated in a 96 well plate and incubated at 37° C., 5% CO2, 95% air and 100% relative humidity overnight. The cytotoxicity assay was conducted as above. IC50 values represent absolute IC50.
In general terms: In ATP-based viability assays light output follows the ATP content of the culture.

Another data set relates to ST-02-0173. The data set is described as above. The class given is cell-based. The following applies: 120 h; stomach PDX ST-02-0173; absolute IC50; 5 days. As for the experimental part:
as §1, §2, §3

Another data set concerns BR-05-0014E. Described as above. The class given is cell-based. As to conditions: 120 h; breast PDX BR-05-0014E; absolute IC50; 5 days. As for the experimental part: as §1, §2, §3
For the next data set, the system named is CH-17-0091. The description is as above. Type of data set: cell-based. The following applies: 120 h; bile duct PDX CH-17-0091; absolute IC50; 5 days. As for the experimental part:
as §1, §2, §3

The next data set relates to ST-02-0322. The data set is described as above. The following applies: 120 h; stomach PDX ST-02-0322; absolute IC50; 5 days. The class given is cell-based. The procedure: as §1, §2, §3
The next data set concerns CO-04-0722. The description is as above. The class given is cell-based. The following applies: 120 h; colon PDX CO-04-0722; absolute IC50; 5 days. As for the experimental part:
as §1, §2, §3

Another data set relates to LY-24-0340. Described as above. Type of data set: cell-based. As to conditions: 120 h; lymphoma PDX LY-24-0340; absolute IC50; 5 days. The procedure: as §1, §2, §3
For a further data set, the system named is ST-02-0007. The data set is described as above. Type of data set: cell-based. The following applies: 120 h; stomach PDX ST-02-0007; absolute IC50; 5 days. The procedure: as §1, §2, §3
In the next data set the test system is CO-04-0701. Described as above. As to conditions: 120 h; colon PDX CO-04-0701; absolute IC50; 5 days. Type of data set: cell-based. The procedure: as §1, §2, §3
For another data set, the system named is LU-01-0604. The description is as above. The class given is cell-based. As to conditions: 120 h; lung PDX LU-01-0604; absolute IC50; 5 days. As for the experimental part:
as §1, §2, §3

In a further data set the test system is ES-06-0002. Described as above. Type of data set: cell-based. The following applies: 120 h; esophagus PDX ES-06-0002; absolute IC50; 5 days. The procedure: as §1, §2, §3
A further data set relates to LU-01-0010. The description is as above. Type of data set: cell-based. The following applies: 120 h; lung PDX LU-01-0010; absolute IC50; 5 days. The procedure:
as §1, §2, §3

A further data set concerns ME-21-0028. The data set is described as above. The following applies: 120 h; skin melanoma PDX ME-21-0028; absolute IC50; 5 days. The class given is cell-based. As for the experimental part:
as §1, §2, §3

For a further data set, the system named is head and neck PDX. Nature of the data set: Activity against head and neck PDX. Type of data set: cell-based. The following applies: head and neck PDX growth; Table 11. As for the experimental part:
as §1, §2, §3

In the case of `O=c1cc(-c2ccc(CCCC[P+](c3ccccc3)(c3ccccc3)c3ccccc3)cc2)oc2c(O)c(O)ccc12` [SND118, 4-[4-(7,8-dihydroxy-4-oxo-chromen-2-yl)phenyl]butyltriphenyl-phosphonium bromide], in the data set on K562 CDX (10 mg/kg/inj i.p. qd), the “Weight loss (%)” value was determined as 8% and the “Optimal T/C (value)” value is 58***. For the same compound, the tumour growth inhibition entry in the data set with K562 CDX is on record as “significantly inhibited tumour growth”.

Turning to `O=c1cc(-c2ccc(CCCC[P+](c3ccccc3)(c3ccccc3)c3ccccc3)cc2)oc2c3c(ccc12)OCO3.[Br-]` [SND123, 4-[4-(6-oxo-[1,3]dioxolo[4,5-h]chromen-8-yl)phenyl]butyl-triphenylphosphonium bromide], the negative logarithm of the IC50 (pIC50) in the data set on CO-04-0700 is 5.59; with ST-02-0173, 5.66; with BR-05-0014E it was 6.01; in the data set on CH-17-0091, 5.52; in the data set on ST-02-0322 it was 5.28; with CO-04-0722, 5.68. In addition, the negative-log IC50 (pIC50) with LY-24-0340 was 6.40; with ST-02-0007, 5.82; in the data set with CO-04-0701 it was 5.47; in the data set with LU-01-0604 it was 6.46; in the data set on ES-06-0002, 5.54; with LU-01-0010, 6.10. Besides, the negative logarithm of the IC50 (pIC50) with ME-21-0028 was 6.10; in the data set with head and neck PDX it was over 5.00.

For the compound `CCNC(=O)Oc1ccc2c(=O)cc(-c3ccc(CCCC[P+](c4ccccc4)(c4ccccc4)c4ccccc4)cc3)oc2c1OC(=O)NCC.[Br-]` [SND124, 4-[4-[7,8-Bis(ethylcarbamoyloxy)-4-oxo-chromen-2-yl]phenyl]-butyltriphenylphosphonium bromide], the negative-log IC50 (pIC50) with CO-04-0700 is 5.64; with ST-02-0173 it was 4.95; in the data set on BR-05-0014E, 5.14; in the data set on CH-17-0091 it was 5.27; with ST-02-0322, 4.97; in the data set on CO-04-0722, 5.49. Further, the pIC50 is 5.43 in the data set with LY-24-0340; 4.99 with ST-02-0007; 4.66 in the data set on CO-04-0701; 5.11 in the data set on LU-01-0604; 5.25 in the data set with ES-06-0002; 5.15 with LU-01-0010. Also, the pIC50 was 5.11 in the data set with ME-21-0028; over 5.00 with head and neck PDX.

`CCNC(=O)Oc1ccc2c(=O)cc(-c3ccc(CCCC[P+](c4ccccc4)(c4ccccc4)c4ccccc4)cc3)oc2c1O.[Br-]` [SND126A, 4-[4-[7-(Ethylcarbamoyloxy)-8-hydroxy-4-oxo-chromen-2-yl]phenyl]butyltriphenylphosphonium bromide]: the pIC50 is 5.64 with CO-04-0700; 4.83 in the data set with ST-02-0173; 5.11 in the data set on BR-05-0014E; 5.14 in the data set with CH-17-0091; 5.01 in the data set on ST-02-0322; 5.47 with CO-04-0722. In addition, the pIC50 with LY-24-0340 was 5.39; with ST-02-0007, 4.97; in the data set on CO-04-0701, under 4.52; in the data set with LU-01-0604 it was 5.09; with ES-06-0002 it was 5.03; in the data set on LU-01-0010, 5.12. Besides, the negative-log IC50 (pIC50) in the data set with ME-21-0028 was 5.10; with head and neck PDX it was over 5.00.

Turning to `COc1c(O)ccc2c(=O)cc(-c3ccc(CCCC[P+](c4ccccc4)(c4ccccc4)c4ccccc4)cc3)oc12.[Br-]` [SND140, (4-(4-(7-hydroxy-8-methoxy-4-oxo-4H-chromen-2-yl)phenyl)butyl)triphenylphosphonium bromide], the pIC50 in the data set with CO-04-0700 was 4.89; in the data set with ST-02-0173 it was 5.01; in the data set on BR-05-0014E, 4.98; in the data set with CH-17-0091, under 4.30; in the data set with ST-02-0322, 4.88; with CO-04-0722, 4.94. For the same compound, the negative logarithm of the IC50 (pIC50) is 5.39 with LY-24-0340; 4.92 in the data set with ST-02-0007; 4.86 in the data set with CO-04-0701; 5.11 in the data set with LU-01-0604; 5.02 with ES-06-0002; 5.52 with LU-01-0010. Besides, the negative logarithm of the IC50 (pIC50) was 5.96 in the data set with ME-21-0028; over 5.00 with head and neck PDX. Besides, the “Weight loss (%)” value in the data set with K562 CDX (5 mg/kg/inj i.p. qd) is recorded as 5%. In the data set on K562 CDX (5 mg/kg/inj i.p. qd), the “Optimal T/C (value)” value is reported as 69*. Also, in the data set on K562 CDX, the tumour growth inhibition entry was “significantly inhibited tumour growth”.

For orientation: pIC50 means the negative decadic logarithm of the IC50, by convention in mol/L.
